Here are results for one compound from US7160684B2, “Methods of selecting compounds for modulation of bladder function” (Wyeth, priority 2000, dated 2007).

The test system of one assay is rat bladder micturition. The assay can be described thus: Rat bladder cystometry, hyperreflexic bladder (0.25% acetic acid infusate). The class given is in vivo. Here is the method: Micturition frequency is enhanced by the stimulation of sensory afferents using a dilute acetic acid solution in the cystometric infusate as previously described by Birder and de Groat (Birder L A. de Groat W C. Increased c-fos expression in spinal neurons after irritation of the lower urinary tract in the rat. J Neuroscience 12: 4878–89, (1992)). Briefly, female Sprague-Dawley rats (190–210 g) are anesthetized with urethane (lg/kg/10 mL, i. p.; 1 g/kg/10 mL, s. q.). The trachea is cannulated with PE205 to ensure a patent airway. The external jugular is cannulated with PE50 tubing for administration of compound. The bladder is exposed through a midline incision, and an angiocatheter (24 g, TEFLON), is heat flared at the end and inserted into the dome of the bladder and secured with 4-0 silk. The bladder is flushed with normal saline and allowed to equilibrate for 1 hour before cystometry is performed. Using a “T” connector, the bladder catheter is connected to a Statham pressure transducer (Model P23Db) and to a Harvard infusion pump. Cystometric recordings are monitored on a GRASS polygraph while infusing the bladder with saline containing 0.25% acetic acid at a rate of 2.4 mL/hr. for one hour. Next, compound is administered intravenously and the cystometry monitored for an additional 2 hours. The following cystometric parameters are recorded: micturition interval, micturition amplitude, micturition threshold pressure, bladder capacity, bladder compliance and the number of spontaneous bladder contractions (SBC) during the filling phase. The control period is taken as the 30 minute time period of acetic acid saline perfusion before dosing.
Rat bladder micturition frequency (enhanced by infusate containing 0.25% acetic acid (Birder, L. A., & deGroat, W., C. Increased c-fos expression in spinal neurons after irritation of the lower urinary tract in the rat. J Neurosc 12: 4878–4889 (1992))) was inhibited by retigabine in a dose-dependent (0.1–10 mg/kg, i.p.) manner. At 10 mg/kg, micturition was blocked in 100% of animals dosed; the population ED50 was 1–2 mg/kg (n=5–8). Micturition block lasted for up to 90 minutes (FIG. 4a).
Rat bladder strips were isolated and prepared as previously described (Wojdan, A., Freeden, C., Woods, M., Oshiro, G., Spinelli, W. et al., J Pharmacol ExpTherap 289:1410–1418 (1999)). Preparations were contracted with either 20 or 60 mM KCl, or 200 nM carbachol. A five minute area under the contraction curve was acquired 20 minutes after addition of each concentration of retigabine using a 12 bit D/A and a 586 based personal computer running custom software. Message for KCNQ subunits was probed using quantitative rtPCR on an ABI PRISM 7700 Sequence Detection System (TAQMAN). Forward and reverse primers and TAQMAN probes were designed using published RNA sequences for human KCNQ1–5 and rat KCNQ 1–4 listed within the NCBI data base. Since no rat sequence for KCNQ5 were currently published, probes and primers were designed by BLAST analysis of rat Expressed Sequence Tags (EST) using the known mouse KNCQ5 sequence. From homologous EST sequences, a contiguous sequence of 384 base pairs was constructed. Probes and primers were designed against this sequence. BLAST analysis of our rat KCNQ5 probes and primer were selective for mouse and human KCNQ5 sequences. PCR products were confirmed by gel electrophoresis (data not shown). Cells for electrophysiology were prepared from rat bladder smooth muscle as previously described (Wojdan et al., 1999). Human bladder smooth muscle cells were obtained from Clonetics, San Diego, Calif. Cells were removed from culture with trypsin and added directly into the recording chamber. All recordings were made at 320 C and acquired on a 586 based personal computer using pCLAMP (Axon Instruments) software. Current clamp recordings were performed with nystatin access as previously described (Wojdan et al.). […]

Assay [1] deals with cultured human bladder smooth muscle cells. The assay can be described thus: Voltage clamp recording of outward current, human cells. The class given is cell-based. Conditions: human bladder smooth muscle cells, FIG. 3d. The method, then:
Single cell recordings are performed with a List-Medical EPC-7 patch clamp amplifier (Adams & List Assoc., Westbury, N.Y.). Pipette electrodes had tip resistances of 2–4 MΩ and are filled with the following composition (mM): KCl (126.0), MgCl2.6H2O (4.5), ATP Mg salt (4.0), GTP tris salt (0.3), creatine PO4 (14.0), D-glucose (9.0), EGTA (9.0), HEPES (9.0). The pH is adjusted to 7.4 with KOH. Signals are acquired (3 kHz high frequency cut-off, 12 bit resolution) using a 586-based personal computer.
Whole cell recordings are made using broken patch access. Currents are evoked using either voltage steps (Vh=−50; Vt=−60 to 40 mV) or voltage ramps (−60 to 40 mV at 3.3 mV/sec.). The exact voltage clamp protocols are well known in the art. After stability is achieved control currents are recorded. Next, test compound is added to the superfusate. Currents are recorded for 5 to 10 minutes or until compound effects reach steady state. This is followed either by washout or addition of antagonists (linopirdine, XE-991) to the superfusate.
Cellular electrophysiological studies were conducted using both voltage and current clamp techniques (Hammill, O., P., Marty, A., Neher, E., Sakmann, B. & Sigworth, F. J.: Improved patch-clamp techniques for high-resolution current recordings from cells and cell-free membrane patches. Pflugers Arch 391: 85–100 (1981)) from Sprague-Dawley rat (200–400 grams) bladders as previously described, (Wojdan, A., Freeden, C., Woods, M., Oshiro, G., Spinelli, W. et al., J. Pharmacol Exp Therap 289: 1410–1418 (1999)) and from a human bladder, primary cell culture (Colnetics, San Diego, Calif.). In rat cells, the average, control resting membrane potential (RMP) was −29.0±4.5 mV. […]
Rat bladder strips were isolated and prepared as previously described (Wojdan, A., Freeden, C., Woods, M., Oshiro, G., Spinelli, W. et al., J Pharmacol ExpTherap 289:1410–1418 (1999)). […] Message for KCNQ subunits was probed using quantitative rtPCR on an ABI PRISM 7700 Sequence Detection System (TAQMAN). […]

Structures are written as SMILES.

The term ED50 denotes the dose at which the effect has come halfway, by size or by number of responders.

Regarding `CCOC(=O)Nc1ccc(NCc2ccc(F)cc2)cc1N` [retigabine, N-[2-amino-4-(4-fluorobenzylamino)-phenyl]carbamic acid ethyl ester], the “frequency of spontaneous contractions during bladder filling” value in the assay on rat bladder micturition (0.1 mg/kg, in comparison to the control) is “significantly reduced”. For the same compound, in the assay on rat bladder micturition (1 mg/kg, i.p., p<0.05), the “inhibition of spontaneous contractions” value was determined as 43.5±14.1%. Moreover, the “animals in which micturition was blocked” value with rat bladder micturition (10 mg/kg, i.p.) came out at 100%. In addition, the micturition result in the assay on rat bladder micturition (10 mg/kg, i.p., within minutes of dosing, four rats) was “completely blocked”. Besides, the ED50 in the assay on rat bladder micturition (Rattus norvegicus, ip, n=5–8, read-out: population ED50 for micturition block) was in the range of 1 to 2 mg/kg. The micturition frequency entry in the assay on rat bladder micturition (dose-dependent, 0.1–10 mg/kg, i.p.) was “inhibited”. In addition, the “duration of micturition block” value in the assay on rat bladder micturition (i.p., FIG. 4a) is listed as “up to 90 minutes”. The entries for the “effect on outward current” value in assay [1] and in assay [1] (listed as Retigabine) were “increased outward currents” and “increased an outward current”, respectively.
